Laboratory results taken from ChEMBL document CHEMBL3758105 (J Med Chem, 2016).

Tests used:
[1] = Oral bioavailability in beagle dog at 1 mg/kg; type: ADME, organism-based, Canis lupus familiaris; settings: in vivo
[2] = Drug metabolism in cynomolgus monkey hepatocytes assessed as sulfate conjugation; type: ADME, cell-based, Macaca fascicularis, Hepatocyte
[3] = target: Cytochrome P450 2C9 (Homo sapiens, UniProt P11712); experiment: Inhibition of CYP2C9 in human liver microsomes assessed as reduction of diclofenac metabolism after 8 mins; type: ADME
Cytochrome P450 2C9, sequence (P11712 whole entry): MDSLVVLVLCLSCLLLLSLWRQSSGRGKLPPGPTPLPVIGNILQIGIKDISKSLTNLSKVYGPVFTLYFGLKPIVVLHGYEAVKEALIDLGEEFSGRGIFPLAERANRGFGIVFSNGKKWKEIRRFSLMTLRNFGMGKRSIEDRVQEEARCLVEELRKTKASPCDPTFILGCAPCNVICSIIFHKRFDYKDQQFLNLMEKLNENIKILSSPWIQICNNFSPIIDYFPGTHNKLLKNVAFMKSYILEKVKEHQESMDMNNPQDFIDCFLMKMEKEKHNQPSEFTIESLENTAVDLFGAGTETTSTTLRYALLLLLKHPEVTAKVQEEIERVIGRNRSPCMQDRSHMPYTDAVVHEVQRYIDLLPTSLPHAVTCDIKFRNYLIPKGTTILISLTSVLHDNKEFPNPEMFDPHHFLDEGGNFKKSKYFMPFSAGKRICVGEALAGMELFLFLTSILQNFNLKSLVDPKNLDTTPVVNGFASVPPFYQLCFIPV

[4] = test system: Rattus norvegicus; experiment: Drug metabolism in Sprague-Dawley rat assessed as (2S,5S)-5-((5-(6-((4-Fluoro-3-methoxybenzyl)carbamoyl)-2-methylpyrimidin-4-yl)-2H-tetrazol-2-yl)methyl)-1,4-dioxane-2-carboxylic acid formation at 1 mg/kg, po; type: ADME, organism-based; settings: in vivo
[5] = test system: Hepatocyte; experiment: Drug metabolism in human hepatocytes assessed as demethylation; type: ADME, cell-based
[6] = target: Collagenase 3 (Homo sapiens, UniProt P45452); experiment: Inhibition of full length human recombinant MMP13 using MCA-Arg-Pro-Leu-Gly-Leu-Dpa-Ala-Arg-Glu-Arg-NH2 as substrate preincubated for 60 mins followed by substrate addition by fluorescence assay
[7] = Oral bioavailability in cynomolgus monkey at 1 mg/kg; type: ADME, organism-based, Macaca fascicularis; settings: in vivo
[8] = test system: Hepatocyte; experiment: Drug metabolism in human hepatocytes assessed as (2S,5S)-5-((5-(6-((4-Fluoro-3-methoxybenzyl)carbamoyl)-2-methylpyrimidin-4-yl)-2H-tetrazol-2-yl)methyl)-1,4-dioxane-2-carboxylic acid formation; type: ADME, cell-based
[9] = Clearance in Sprague-Dawley rat at 1 mg/kg, iv administered as bolus dose by LC-MS/MS analysis; type: ADME, organism-based; settings: in vivo
[10] = Drug metabolism in cynomolgus monkey urine assessed as glucuronidation; type: ADME, tissue-based, Macaca fascicularis
[11] = target: Cytochrome P450 2D6 (Homo sapiens, UniProt P10635); experiment: Inhibition of CYP2D6 (unknown origin); type: ADME
Cytochrome P450 2D6, sequence (P10635 whole entry): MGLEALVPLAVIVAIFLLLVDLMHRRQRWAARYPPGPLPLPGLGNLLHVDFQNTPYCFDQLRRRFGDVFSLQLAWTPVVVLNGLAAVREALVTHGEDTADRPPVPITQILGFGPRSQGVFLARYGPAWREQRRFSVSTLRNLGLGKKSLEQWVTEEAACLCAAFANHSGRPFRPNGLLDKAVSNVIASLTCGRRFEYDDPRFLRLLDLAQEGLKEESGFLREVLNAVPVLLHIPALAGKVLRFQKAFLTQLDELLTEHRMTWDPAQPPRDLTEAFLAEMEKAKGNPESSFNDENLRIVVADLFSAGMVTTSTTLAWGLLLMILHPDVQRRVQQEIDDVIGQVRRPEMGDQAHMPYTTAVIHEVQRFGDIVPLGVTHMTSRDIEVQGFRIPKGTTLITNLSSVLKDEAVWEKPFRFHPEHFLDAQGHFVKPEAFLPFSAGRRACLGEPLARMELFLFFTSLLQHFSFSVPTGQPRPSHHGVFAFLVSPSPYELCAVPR

[12] = Intrinsic clearance in human liver microsomes measured over 40 mins by HPLC/MS analysis; type: ADME; settings: read-out: CLH
[13] = Drug metabolism in cynomolgus monkey hepatocytes assessed as (2S,5S)-5-((5-(6-((4-Fluoro-3-methoxybenzyl)carbamoyl)-2-methylpyrimidin-4-yl)-2H-tetrazol-2-yl)methyl)-1,4-dioxane-2-carboxylic acid formation; type: ADME, cell-based, Macaca fascicularis, Hepatocyte
[14] = target: Cytochrome P450 3A4 (Homo sapiens, UniProt P08684); experiment: Inhibition of CYP3A4 (unknown origin); type: ADME
Cytochrome P450 3A4, sequence (P08684 whole entry): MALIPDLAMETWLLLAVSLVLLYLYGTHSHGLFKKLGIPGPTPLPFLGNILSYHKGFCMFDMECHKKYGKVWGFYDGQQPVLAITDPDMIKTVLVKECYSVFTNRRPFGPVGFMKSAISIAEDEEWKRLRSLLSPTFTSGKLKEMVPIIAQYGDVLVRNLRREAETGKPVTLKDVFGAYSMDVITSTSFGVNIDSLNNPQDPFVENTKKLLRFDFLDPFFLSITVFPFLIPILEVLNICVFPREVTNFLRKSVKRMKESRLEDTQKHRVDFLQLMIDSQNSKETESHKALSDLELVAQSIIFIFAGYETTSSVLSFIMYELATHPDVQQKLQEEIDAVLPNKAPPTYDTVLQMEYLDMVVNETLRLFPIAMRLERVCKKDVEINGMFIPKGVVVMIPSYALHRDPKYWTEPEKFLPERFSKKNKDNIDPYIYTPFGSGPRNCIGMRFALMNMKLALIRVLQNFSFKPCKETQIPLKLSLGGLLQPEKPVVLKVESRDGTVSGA

[15] = test system: Hepatocyte; experiment: Drug metabolism in human hepatocytes assessed as methyl oxidation; type: ADME, cell-based
[16] = target: T1, Cytochrome P450 1A2 (Homo sapiens, UniProt P05177); experiment: Inhibition of CYP1A2 (unknown origin); type: ADME
T1 sequence (P05177 whole entry): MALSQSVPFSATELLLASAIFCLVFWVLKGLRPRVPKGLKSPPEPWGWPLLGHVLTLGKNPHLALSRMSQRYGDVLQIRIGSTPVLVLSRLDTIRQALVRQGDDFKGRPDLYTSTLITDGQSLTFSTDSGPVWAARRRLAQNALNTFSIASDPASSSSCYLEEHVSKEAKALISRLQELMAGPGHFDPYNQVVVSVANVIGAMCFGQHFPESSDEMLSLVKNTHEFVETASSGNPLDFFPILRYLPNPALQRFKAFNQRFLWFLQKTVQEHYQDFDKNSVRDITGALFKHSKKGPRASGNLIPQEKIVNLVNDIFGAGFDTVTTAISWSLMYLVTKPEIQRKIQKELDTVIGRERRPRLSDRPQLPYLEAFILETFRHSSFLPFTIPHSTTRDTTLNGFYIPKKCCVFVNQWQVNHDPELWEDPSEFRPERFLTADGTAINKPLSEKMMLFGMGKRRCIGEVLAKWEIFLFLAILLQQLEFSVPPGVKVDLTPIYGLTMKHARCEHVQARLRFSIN

[17] = Drug metabolism in cynomolgus monkey hepatocytes assessed as glucuronidation; type: ADME, cell-based, Macaca fascicularis, Hepatocyte
[18] = test system: Hepatocyte; experiment: Drug metabolism in human hepatocytes assessed as sulfate conjugation; type: ADME, cell-based
[19] = test system: Cynomolgus monkey; experiment: Nephrotoxicity in cynomolgus monkey at 50 to 1000 mg/kg/day, po administered for 14 days; type: toxicity, organism-based, Macaca fascicularis; settings: in vivo, 336 h
[20] = Clearance in cynomolgus monkey at 1 mg/kg, po and iv; type: ADME, organism-based, Macaca fascicularis; settings: in vivo
[21] = target: Stromelysin-1 (Homo sapiens, UniProt P08254); experiment: Inhibition of MMP3 (unknown origin) catalytic domain using MCA-Arg-Pro-Leu-Gly-Leu-Dpa-Ala-Arg-Glu-Arg-NH2 as substrate preincubated for 60 mins followed by substrate addition by fluorescence assay
Stromelysin-1, sequence (P08254 whole entry, the tested form may be a part): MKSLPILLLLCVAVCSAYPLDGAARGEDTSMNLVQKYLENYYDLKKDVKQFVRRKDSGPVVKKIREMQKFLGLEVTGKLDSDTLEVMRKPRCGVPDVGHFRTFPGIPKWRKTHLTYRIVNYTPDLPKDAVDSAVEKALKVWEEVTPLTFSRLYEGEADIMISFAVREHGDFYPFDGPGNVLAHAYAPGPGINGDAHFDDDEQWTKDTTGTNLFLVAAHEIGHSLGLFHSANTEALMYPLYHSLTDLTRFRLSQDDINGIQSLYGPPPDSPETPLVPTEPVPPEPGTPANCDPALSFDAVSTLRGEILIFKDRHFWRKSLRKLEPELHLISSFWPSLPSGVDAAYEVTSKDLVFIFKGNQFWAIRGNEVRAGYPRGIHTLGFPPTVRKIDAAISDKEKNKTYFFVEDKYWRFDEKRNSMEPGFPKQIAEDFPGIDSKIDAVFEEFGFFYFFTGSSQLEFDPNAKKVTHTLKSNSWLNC

[22] = Drug metabolism in cynomolgus monkey urine assessed as (2S,5S)-5-((5-(6-((4-Fluoro-3-methoxybenzyl)carbamoyl)-2-methylpyrimidin-4-yl)-2H-tetrazol-2-yl)methyl)-1,4-dioxane-2-carboxylic acid formation; type: ADME, tissue-based, Macaca fascicularis
[23] = test system: Cynomolgus monkey; experiment: Drug metabolism in cynomolgus monkey assessed as (2S,5S)-5-((5-(6-((4-Fluoro-3-methoxybenzyl)carbamoyl)-2-methylpyrimidin-4-yl)-2H-tetrazol-2-yl)methyl)-1,4-dioxane-2-carboxylic acid formation at 1 mg/kg, po; type: ADME, organism-based, Macaca fascicularis; settings: in vivo
[24] = Drug metabolism in cynomolgus monkey urine assessed as sulfate conjugation; type: ADME, Macaca fascicularis
[25] = test system: Hepatocyte; experiment: Drug metabolism in human hepatocytes assessed as glucuronidation; type: ADME, cell-based
[26] = Oral bioavailability in Sprague-Dawley rat at 1 mg/kg; type: ADME, organism-based; settings: in vivo
[27] = Drug metabolism in cynomolgus monkey hepatocytes assessed as methyl oxidation; type: ADME, cell-based, Macaca fascicularis, Hepatocyte
[28] = Drug metabolism in cynomolgus monkey urine assessed as demethylation; type: ADME, tissue-based, Macaca fascicularis
[29] = Clearance in beagle dog at 1 mg/kg, po and iv; type: ADME, organism-based, Canis lupus familiaris; settings: in vivo
[30] = Drug metabolism in cynomolgus monkey urine assessed as methyl oxidation; type: ADME, tissue-based, Macaca fascicularis
[31] = Drug metabolism in cynomolgus monkey hepatocytes assessed as demethylation; type: ADME, cell-based, Macaca fascicularis, Hepatocyte

bioavailability [1]: 64% | Drug metabolism [2]: metabolite_detected | IC50 [3]: > 30 µM | Drug metabolism [4]: metabolite_detected | Drug metabolism [5]: metabolite_detected | Ki [6]: 0.0015 µM | bioavailability [7]: 88% | Drug metabolism [8]: metabolite_detected | clearance [9]: 18.2 mL/min/kg | Drug metabolism [10]: metabolite_detected | IC50 [11]: > 30 µM | microsomal CLint [12]: < 8 µL/min/mg | Drug metabolism [13]: metabolite_detected | IC50 [14]: > 30 µM | Drug metabolism [15]: metabolite_detected | IC50 [16]: > 30 µM | Drug metabolism [17]: metabolite_detected | Drug metabolism [18]: metabolite_detected | clearance [20]: 2.1 mL/min/kg | Ki [21]: > 10 µM | Drug metabolism [22]: metabolite_detected | Drug metabolism [23]: metabolite_detected | Drug metabolism [24]: metabolite_detected | Drug metabolism [25]: metabolite_detected | bioavailability [26]: 95% | Drug metabolism [27]: metabolite_detected | Drug metabolism [28]: metabolite_detected | clearance [29]: 8.2 mL/min/kg | Drug metabolism [30]: metabolite_detected | Drug metabolism [31]: metabolite_detected
Compound: COc1cc(CNC(=O)c2cc(-c3nnn(C[C@H]4CO[C@H](CO)CO4)n3)nc(C)n2)ccc1F
Activity [19]: Non-toxic
